Test results taken from patent US10054581B1, “Inhibitors of notch signaling pathway and use thereof in treatment of cancers” (Ecole Polytechnique Federale de Lausanne (EPFL), priority 2011, dated 2018).
“Also recorded” adds a separate entry of the source.

Tested on: Notch signalling via DL4:N1 ligand-receptor pair (Notch1)
Experiment: DL4:N1 coculture assay, Notch driven luciferase reporter
Format: cell-based, mouse
Settings: DL4-N1 coculture assay; for Notch inhibitory activity of derivatives compared to parental compound I3: FIG. 10
Description: Mouse DL4-IRES dsRED cDNA was cloned into a pENTR1 vector (Invitrogen®) and finally shuttled into a destination lentivirus vector using Gateway cloning strategy (Invitrogen). A Phosphoglycerate kinase (PGK) promoter drove the expression of DL4 protein. DL4-lentiviral particles were produced in 293T cells by cotransfection of DL4-lentivirus vector, Gag/pol expression plasmid and plasmid encoding for viral envelope proteins. To overexpress Notch1 protein, mouse full length Notch1 cDNA was a cloned in a pCDNA3.1-IRES-puromycin vector. Notch1 cDNA was cloned upstream of IRES-puromycin between HindIII and XbaI restriction sites. A CMV promoter controlled the expression of Notch1 protein.
To measure the Notch signalling activation, CSL/RBP-jk consensus DNA binding sequences were cloned in a head to tail conformation in the pGL4 luciferase vector (Promega), thus named 12×CSL/RBP-jjk luciferase vector. In order to determine the Notch pathway activation in chemical compound screening assay, 12×CSL/RBP-jk consensus DNA binding sequences were cloned into pGL4.26.luciferase vector (Promega). As an internal control for transfection efficiency, SV40 Renilla vector was used (Promega).
In order to generate DL4 and N1 stable cell lines, HeLa cell were bought from ATCC (catalog # CCL-2). To generate DL4 stable lines, cells were transduced with DL4-lentiviral particles. DL4 stable clones were selected using puromycin. High DL4 expressing clones were sorted using antibodies against DL4 with Fluorescence activated cell sorting (FACS). To generate N1 stable line, cell were transfected with a pCDNA3.1+(Invitrogen) plasmid containing mouse full length Notch1 under the control of CMV promoter. To select for Notch1 expressing clones, an IRES puromycin cassette was cloned downstream of Notch1 cDNA. HeLa cells expressing high levels of Notch1 were enriched by FACS using anti-Notch1 antibodies. DL4- and N1-HeLa cells were cultured in DMEM (GIBCO, Invitrogen), 10% FCS and 10 ug/ml of puromycin (Sigma).
For chemical library screen, the coculture assay was performed as follows. N1-HeLa cells were cotransfected in 10 cm tissue culture dishes with 16 μg of pGL4.26. 12×CSL.luciferase vector/plate, 4 μg of Notch1 expression plasmid/plate, and 200 ng of SV40 Renilla vector/plate. DL4- and N1-HeLa cells were detached from the plate by using 0.5 mM EDTA (1×PBS). The both cell populations were counted and mixed in 1:1 ratio (5,000:5,000 cells/well in a 384 well plate) and dispensed into 384 well plates (white, clear bottom, Corning) using multidrop Combi plate dispenser. The assay plates were pre-dispensed (using automated Biomek 3000 liquid handler) with chemical compound libraries (Microsource NIMDS, Maybridge Hitfinder and Prestwick) to give a final concentration of 10 μM. The final assay volume was 22 μls. Twenty-four hours later, growth media was aspirated and cells were lysed with 1× Passive lysis buffer for 10 minutes at room temperature. Luciferase activity was measured using Luciferase Assay Reagent II and Renilla values were determined by using Stop and Glow reagent (Dual luciferase assay system, Cat #E1980, Promega). Luciferase and renilla readouts were taken using Tecan® F500 (Tecan) multiplate reader. All the liquid handling steps (aspiration of the medium, dispensing of Passive lysis buffer, Luciferase Assay Reagent II and Stop and Glow reagents) were performed using ELF406 liquid handler.
In order to identify novel modulators of the Notch pathway, Applicants have established a coculture assay in which DL4 ligand expressing HeLa cells were cultured with N1 HeLa cells, thereby activating the Notch pathway. The use of a DL4 and N1 HeLa cell coculture system mimics physiological conditions of cell-cell communication between ligand and receptor expressing cells. The in vitro generation of a controlled receptor-ligand assay system allowed Applicants to modify and monitor the Notch signal intensity by γ-secretase inhibitors. […]

SMILES | ability to block Notch pathway activation in coculture assay (screening of derivatives) | Notch inhibitory activity of derivatives compared to parental compound I3
Nc1ccc(Oc2ccc(C3CCCCC3)cc2)nc1 [I3-A, 6-(4-cyclohexylphenoxy)pyridin-3-amine] | ability to block Notch pathway activation in coculture assay | block Notch signalling to comparable levels to parental compound I3; also recorded: exhibit anti-Notch activity comparable to 6-(4-Tert-Butylphenoxy)Pyridin-3-Amine (I3)
CCC(C)(C)c1ccc(Oc2ccc(N)cn2)cc1 [I3-B, 6-(4-(tert-Pentyl)phenoxy)pyridin-3-amine] | ability to block Notch pathway activation in coculture assay | block Notch signalling to comparable levels to parental compound I3; also recorded: exhibit anti-Notch activity comparable to 6-(4-Tert-Butylphenoxy)Pyridin-3-Amine (I3)
CC(C)(C)c1ccc(Oc2ccc(N)cc2)cc1 [I3-C, 4-(4-(tert-butyl)phenoxy)aniline] | ability to block Notch pathway activation in coculture assay | block Notch signalling to comparable levels to parental compound I3; also recorded: exhibit anti-Notch activity comparable to 6-(4-Tert-Butylphenoxy)Pyridin-3-Amine (I3)
CCCCc1ccc(Oc2ccc(N)cn2)cc1 [I3-D, 6-(4-Butylphenoxy)pyridin-3-amine] | ability to block Notch pathway activation in coculture assay | –
CCC(C)(C)c1ccc(Oc2ccc(N)cc2)cc1 [I3-E, 4-(4-(tert-pentyl)phenoxy)aniline] | ability to block Notch pathway activation in coculture assay | block Notch signalling to comparable levels to parental compound I3; also recorded: exhibit anti-Notch activity comparable to 6-(4-Tert-Butylphenoxy)Pyridin-3-Amine (I3)
Nc1ccc(Oc2ccc(C3CCCCC3)cc2)cc1 [I3-F, 4-(4-cyclohexylphenoxy)aniline] | ability to block Notch pathway activation in coculture assay | appear to have enhanced activity
Nc1ccc(Oc2ccc(C34CC5CC(CC(C5)C3)C4)cc2)nc1 [I3-G, 6-(4-((3r,5r,7r)-adamantan-1-yl)phenoxy)pyridin-3-amine] | ability to block Notch pathway activation in coculture assay | block Notch signalling to comparable levels to parental compound I3; also recorded: exhibit anti-Notch activity comparable to 6-(4-Tert-Butylphenoxy)Pyridin-3-Amine (I3)
CC(C)(C)c1cccc(Oc2ccc(N)cn2)c1 [I3-H, 6-(3-(tert-butyl)phenoxy)pyridin-3-amine] | ability to block Notch pathway activation in coculture assay | block Notch signalling to comparable levels to parental compound I3; also recorded: exhibit anti-Notch activity comparable to 6-(4-Tert-Butylphenoxy)Pyridin-3-Amine (I3)
CC(C)(C)c1ccc(Oc2ccc(N)cc2F)cc1 [I3-I, 4-(4-(tert-butyl)phenoxy)-3-fluoroaniline] | ability to block Notch pathway activation in coculture assay | appear to have enhanced activity
CC(C)c1ccc(Oc2ccc(N)cc2)cc1 [I3-J, 4-(4-isopropylphenoxy)aniline] | ability to block Notch pathway activation in coculture assay | –
CC(C)(C)CC(C)(C)c1ccc(Oc2ccc(N)cn2)cc1 [I3-K, 6-(4-(2,4,4-trimethylpentan-2-yl)phenoxy)pyridin-3-amine] | ability to block Notch pathway activation in coculture assay | –
Nc1ccc(Oc2ccc(C3CCCCC3)cc2)c(F)c1 [I3-L, 4-(4-cyclohexylphenoxy)-3-fluoroaniline] | ability to block Notch pathway activation in coculture assay | –
CCC(C)(C)c1ccc(Oc2ccc(N)cc2F)cc1 [I3-M, 3-fluoro-4-(4-(tert-pentyl)phenoxy)aniline] | ability to block Notch pathway activation in coculture assay | block Notch signalling to comparable levels to parental compound I3; also recorded: exhibit anti-Notch activity comparable to 6-(4-Tert-Butylphenoxy)Pyridin-3-Amine (I3)
CCCC(C)(C)c1ccc(Oc2ccc(N)cn2)cc1 [I3-N, 6-(4-(2-methylpentan-2-yl)phenoxy)pyridin-3-amine] | ability to block Notch pathway activation in coculture assay | block Notch signalling to comparable levels to parental compound I3; also recorded: exhibit anti-Notch activity comparable to 6-(4-Tert-Butylphenoxy)Pyridin-3-Amine (I3)
Nc1ccc(Oc2ccc(C34CC5CC(CC(C5)C3)C4)cc2)cc1 [I3-O, 4-(4-((3r,5r,7r)-adamantan-1-yl)phenoxy)aniline] | ability to block Notch pathway activation in coculture assay | –
Nc1ccc(Oc2ccc(C34CC5CC(CC(C5)C3)C4)cc2)c(F)c1 [I3-P, 4-(4-((3r,5r,7r)-adamantan-1-yl)phenoxy)-3-fluoroaniline] | ability to block Notch pathway activation in coculture assay | –
